The text below walks through data of US20240417397A1 (priority 2021, published 2024).

The structures appear in SMILES notation.

The test system of the test is Rice blast fungi (Pyricularia oryzae, MAFF101511). Nature of the test: microbe, parasite or virus in culture. The format is cell-based. The settings on record: 72 h, read-out: Inhibition rate (%) of elongation length of fungal filaments.

As usually defined, the inhibition is the relative decrease from the control value, in per cent.

`COc1n[nH]c(F)c1C(F)(F)F` [Example 2, 3-fluoro-5-methoxy-4-trifluoromethylpyrazole]: the inhibition at 500 ppm came out at 95%.

Take `COc1n[nH]c(N2CCC(OC)CC2)c1C(F)(F)F` [Example 9, 3-methoxy-5-(4-methoxypiperidin-1-yl)-4-trifluoromethyl-1H-pyrazole]: the inhibition at 500 ppm worked out at 88%.
